Data as given in patent US20140213538A1, “LYSOPHOSPHATIDIC ACID RECEPTOR ANTAGONISTS” (InterMune, Inc., priority 2013, published 2014).

Target: T1, LPA/S1P GPCR of interest (Homo sapiens, UniProt Q92633)
T1 construct: host or cells: CHO
Experiment: Beta-Arrestin based assay (PathHunter)
Format: cell-based
Procedure: CMV promoter based DNA constructs expressing a fusion of the LPA/S1P GPCR of interest and ProLink™ tag were used to transfect EA Parental™ CHO cells (DiscoverX, Fremont, Calif.) using a FuGENE® transfection kit (Roche). Beta-Arrestin based assays were conducted 24-48 hrs post transfection using PathHunter® assay kits (DiscoverX, Fremont, Calif.). Agonist and antagonist assays were performed in quadruplicate in white 384 well plates. End point luminescence data were plotted and fit to a 4 parameter logistic function to obtain IC50 values. For antagonist assays, an IC80 concentration of agonist (LPA) equal to 0.5 micromolar was used.

T1 sequence (Q92633 whole entry): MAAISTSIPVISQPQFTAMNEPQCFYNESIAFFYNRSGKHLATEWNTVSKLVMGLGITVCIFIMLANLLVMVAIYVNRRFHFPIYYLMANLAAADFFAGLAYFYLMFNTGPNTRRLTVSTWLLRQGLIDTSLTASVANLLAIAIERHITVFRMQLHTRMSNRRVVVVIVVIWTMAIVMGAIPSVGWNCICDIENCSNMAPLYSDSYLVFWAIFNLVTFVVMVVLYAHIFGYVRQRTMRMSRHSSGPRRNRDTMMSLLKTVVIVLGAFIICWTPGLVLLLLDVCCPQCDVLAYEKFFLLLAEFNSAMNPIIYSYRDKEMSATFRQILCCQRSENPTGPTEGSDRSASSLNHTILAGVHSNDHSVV

EC50 [nM] | SMILES
50 to 500 | Cc1noc(-c2ccc(-c3ccc(Oc4ncoc4C(=O)O)cc3)cc2)c1NC(=O)O[C@H](C)c1ccccc1 [IT419]
> 500 | C[C@@H](OC(=O)Nc1c(-c2cc3sc(-c4ccc5[nH]c(C6(C(=O)O)CC6)nc5c4)cc3s2)cnn1C)c1ccccc1 [IT427]
50 to 500 | COc1cc(-c2cc3sc(-c4nnn(C)c4NC(=O)O[C@H](C)c4ccccc4)cc3s2)cnc1C1(C(=O)O)CC1 [IT358]
50 to 500 | C[C@@H](OC(=O)Nc1c(-c2cc3sc(-c4ccc(-c5nnc(C6(C(=O)O)CC6)s5)cc4)cc3s2)nnn1C)c1ccccc1 [IT288]
> 500 | C[C@@H](OC(=O)Nc1c(-c2ccc(-c3nnc(C4(C(=O)O)CC4)o3)cc2)nnn1C)c1ccccc1 [IT175]
> 500 | C[C@@H](OC(=O)Nc1c(-c2ccc(C#CC(=O)Nc3ccc(C(=O)O)cc3)cc2)cnn1C)c1ccccc1 [IT431]
50 to 500 | C[C@@H](OC(=O)Nc1c(-c2ccc(-c3ccc(OC(C)(C)C(=O)O)c(F)c3)cc2)oc2ccccc12)c1ccccc1 [IT504]
50 to 500 | C[C@@H](OC(=O)Nc1c(-c2cc3sc(-c4ccc(CC(=O)O)c(C(F)(F)F)c4)cc3s2)cnn1C)c1ccccc1 [IT222]
> 500 | C[C@@H](OC(=O)Nc1c(-c2ccc(C#CC(=O)NC3(C(=O)O)CC3)cc2)cnn1C)c1ccccc1 [IT405]
50 to 500 | C[C@@H](OC(=O)Nc1c(-c2cc3sc(-c4ccc5occ(CC(=O)O)c5c4)cc3s2)nnn1C)c1ccccc1 [IT268]
50 to 500 | C[C@@H](OC(=O)Nc1c(-c2cc3sc(-c4ccc(C5(C(=O)O)CC5)cc4C(F)(F)F)cc3s2)cnn1C)c1ccccc1 [IT247]
50 to 500 | Cc1noc(-c2ccc(-c3ccc(Oc4cccc(C(=O)O)c4)cc3)cc2)c1NC(=O)O[C@H](C)c1ccccc1 [IT356]
50 to 500 | C[C@@H](OC(=O)Nc1c(-c2cc3sc(-c4cc(F)c(CC(=O)O)cc4F)cc3s2)cnn1C)c1ccccc1 [IT327]
> 500 | Cc1nsc(-c2cc3sc(-c4ccc(C5(C(=O)O)CC5)c5ccccc45)cc3s2)c1NC(=O)O[C@H](C)c1ccccc1 [IT322]
50 to 500 | Cc1nsc(-c2cc3sc(-c4ccc(C5(C(=O)O)CC5)nc4)cc3s2)c1NC(=O)O[C@H](C)c1ccccc1 [IT271]
< 50 | C[C@@H](OC(=O)Nc1c(-c2cc(F)c(-c3cc(F)c(Oc4ncccc4C(=O)O)c(F)c3)cc2F)cnn1C)c1ccccc1 [IT473]
50 to 500 | Cc1nsc(-c2cc3sc(-c4ccc(C5(C(=O)O)CC5)cc4OC(F)(F)F)cc3s2)c1NC(=O)O[C@H](C)c1ccccc1 [IT387]
50 to 500 | C[C@@H](OC(=O)Nc1c(-c2cc3sc(-c4ccc5[nH]cc(CC(=O)O)c5c4)cc3s2)nnn1C)c1ccccc1 [IT298]
> 500 | Cc1nsc(-c2ccc(-c3ccc(C(=O)O)s3)cc2)c1NC(=O)O[C@H](C)c1ccccc1 [IT144]
> 500 | C[C@@H](OC(=O)Nc1c(-c2cc3sc(-c4ccc5scc(C6(C(=O)O)CC6)c5c4)cc3s2)nnn1C)c1ccccc1 [IT372]
50 to 500 | COc1cc(-c2cc3sc(-c4cnn(C)c4NC(=O)O[C@H](C)c4ccccc4)cc3s2)ccc1C1(C(=O)O)CC1 [IT329]
> 500 | C[C@@H](OC(=O)Nc1c(-c2cc3sc(-c4ccc(CC(=O)O)cc4OC(F)(F)F)cc3s2)cnn1C)c1ccccc1 [IT383]
> 500 | C[C@@H](OC(=O)Nc1c(-c2cc3sc(-c4ccc(CC(=O)O)cc4OC(F)(F)F)cc3s2)nnn1C)c1ccccc1 [IT416]
> 500 | COc1cc(-c2cc3sc(-c4nnn(C)c4NC(=O)O[C@H](C)c4ccccc4)cc3s2)c(OC)cc1CC(=O)O [IT350]
> 500 | C[C@@H](OC(=O)Nc1c(-c2cc3sc(-c4ccc5c(CC(=O)O)c[nH]c5c4)cc3s2)cnn1C)c1ccccc1 [IT377]

EC50 [nM] | SMILES
> 500 | C[C@@H](OC(=O)Nc1c(-c2ccc(-c3ncc(C4(C(=O)O)CC4)s3)cc2)nnn1C)c1ccccc1 [IT239]
< 50 | C[C@@H](NC(=O)Nc1c(C#Cc2cc3sc(C4(C(=O)O)CC4)cc3s2)cnn1C)c1ccccc1 [IT109]
50 to 500 | C[C@@H](OC(=O)Nc1c(-c2ccc(-c3cnc(C4(C(=O)O)CC4)s3)cc2)nnn1C)c1ccccc1 [IT278]
50 to 500 | C[C@@H](OC(=O)Nc1c(-c2cc3sc(-c4ccc5scc(CC(=O)O)c5c4)cc3s2)cnn1C)c1ccccc1 [IT353]
< 50 | Cc1nsc(-c2cc3sc(-c4ccc(C5(C(=O)O)CC5)c(F)c4F)cc3s2)c1NC(=O)O[C@H](C)c1ccccc1 [IT366]
> 500 | COc1cc(-c2cc3sc(-c4cnn(C)c4NC(=O)O[C@H](C)c4ccccc4)cc3s2)c(OC)cc1CC(=O)O [IT349]
50 to 500 | C[C@@H](OC(=O)Nc1c(-c2cc3sc(-c4ccc(CC(=O)O)nc4)cc3s2)nnn1C)c1ccccc1 [IT215]
< 50 | Cc1noc(-c2ccc3c(c2)CCCc2cc(CC(=O)O)ccc2-3)c1NC(=O)O[C@H](C)c1ccccc1 [IT280]
50 to 500 | C[C@@H](OC(=O)Nc1c(-c2cc3sc(-c4ccc(C5(C(=O)O)CC5)cc4OC(F)(F)F)cc3s2)cnn1C)c1ccccc1 [IT385]
> 500 | C[C@@H](OC(=O)Nc1c(-c2ccc(C#CC(=O)Nc3ccccc3C(=O)O)cc2)cnn1C)c1ccccc1 [IT430]
50 to 500 | Cc1nsc(-c2cc3sc(-c4ccc(C5(C(=O)O)CC5)cn4)cc3s2)c1NC(=O)O[C@H](C)c1ccccc1 [IT426]
> 500 | Cc1nsc(-c2ccc(-c3nnc(C4(C(=O)O)CC4)s3)cc2)c1NC(=O)O[C@H](C)c1ccccc1 [IT200]
> 500 | COc1cc(CC(=O)O)ccc1-c1cc2sc(-c3snc(C)c3NC(=O)O[C@H](C)c3ccccc3)cc2s1 [IT163]
50 to 500 | Cc1cc(-c2cc3sc(-c4cnn(C)c4NC(=O)O[C@H](C)c4ccccc4)cc3s2)c(F)cc1C1(C(=O)O)CC1 [IT339]
50 to 500 | Cc1nsc(-c2cc3sc(-c4ccc5occ(CC(=O)O)c5c4)cc3s2)c1NC(=O)O[C@H](C)c1ccccc1 [IT333]
> 500 | Cc1nsc(-c2cc3sc(-c4ccc5occ(C6(C(=O)O)CC6)c5c4)cc3s2)c1NC(=O)O[C@H](C)c1ccccc1 [IT352]
> 500 | Cc1nsc(-c2cc3sc(-c4ccc(-c5nnc(C6(C(=O)O)CC6)o5)cc4)cc3s2)c1NC(=O)O[C@H](C)c1ccccc1 [IT216]
< 50 | Cc1nsc(-c2cc3sc(-c4ccc(C5(C(=O)O)CC5)c(F)c4)cc3s2)c1NC(=O)O[C@H](C)c1ccccc1 [IT297]
> 500 | C[C@@H](OC(=O)Nc1c(-c2ccc(-c3nnc(CC(=O)O)o3)cc2)nnn1C)c1ccccc1 [IT143]
> 500 | Cc1nsc(-c2cc3sc(-c4ccc(CC(=O)O)c(S(C)(=O)=O)c4)cc3s2)c1NC(=O)O[C@H](C)c1ccccc1 [IT433]
50 to 500 | Cc1nsc(-c2cc3sc(-c4ccc(C5(C(=O)O)CC5)s4)cc3s2)c1NC(=O)O[C@H](C)c1ccccc1 [IT274]
50 to 500 | C[C@@H](OC(=O)Nc1c(-c2cc3sc(-c4ccc5c(C6(C(=O)O)CC6)coc5c4)cc3s2)nnn1C)c1ccccc1 [IT396]
> 500 | Cc1cc(-c2cc3sc(-c4snc(C)c4NC(=O)O[C@H](C)c4ccccc4)cc3s2)ccc1CC(=O)O [IT292]
50 to 500 | C[C@@H](OC(=O)Nc1c(-c2cc3sc(-c4cnc(C5(C(=O)O)CC5)c(F)c4)cc3s2)cnn1C)c1ccccc1 [IT392]
> 500 | C[C@@H](OC(=O)Nc1c(-c2cc3sc(-c4ccc(-c5nnc(CC(=O)O)o5)cc4)cc3s2)cnn1C)c1ccccc1 [IT206]
